In patent US10238612B2, “Transdermal administration of tamsulosin” (Corium International, Inc., priority 2009, dated 2019):

Assay: Solubility of tamsulosin in DMSO and in mixtures of DMSO and water
Assay type: physicochemical
Description: For example, dimethylsulfoxide (DMSO) may potentially be used. The table below gives some data on the solubility of tamsulosin in DMSO and in mixtures of DMSO and water: […]

CCOc1ccccc1OCCN[C@H](C)Cc1ccc(OC)c(S(N)(=O)=O)c1 [Tamsulosin, 5-[2-[[2-(2-ethoxyphenoxy)ethyl]amino]propyl]-2-methoxy-benzenesulfonamide]
Solubility of Tamsulosin (Water in DMSO 0 w/w %): 230 mg/g
Solubility of Tamsulosin (w/w %) (Water in DMSO 0 w/w %): 23.0 w/w %
Solubility of Tamsulosin (Water in DMSO 8.85 w/w %): 72.9 mg/g
Solubility of Tamsulosin (w/w %) (Water in DMSO 8.85 w/w %): 7.29 w/w %
Solubility of Tamsulosin (Water in DMSO 16.85 w/w %): 30.2 mg/g
Solubility of Tamsulosin (w/w %) (Water in DMSO 16.85 w/w %): 3.02 w/w %
Solubility of Tamsulosin (w/w %) (Water in DMSO 29.19 w/w %): 0.52 w/w %
